Laboratory results taken from the NIST ThermoML archive (doi:10.1021/je100774p).
Numbers after ± are expanded uncertainties.

Experiment: mn = molality of the nth substance listed, in mol/kg
Details: 101 kPa, Liquid; for viscosity: Capillary tube (Ostwald / Ubbelohde) method

Compound: O=C(O)c1cccnc1 [3-carboxylpyridine] + O
- viscosity (293.15 K, m1 = 0.004283): 1.004 ± 0.008 mPa·s
- viscosity (293.15 K, m1 = 0.006512): 1.005 ± 0.008 mPa·s
- viscosity (293.15 K, m1 = 0.008188): 1.006 ± 0.008 mPa·s
- viscosity (293.15 K, m1 = 0.01628): 1.007 ± 0.008 mPa·s
- viscosity (293.15 K, m1 = 0.03262): 1.011 ± 0.008 mPa·s
- viscosity (293.15 K, m1 = 0.04903): 1.015 ± 0.008 mPa·s
- viscosity (293.15 K, m1 = 0.06555): 1.018 ± 0.008 mPa·s
- viscosity (293.15 K, m1 = 0.0821): 1.022 ± 0.008 mPa·s
- viscosity (293.15 K, m1 = 0.09871): 1.026 ± 0.008 mPa·s
- viscosity (293.15 K, m1 = 0.1154): 1.029 ± 0.008 mPa·s
- viscosity (293.15 K, m1 = 0.1321): 1.033 ± 0.008 mPa·s
- mass density (293.15 K, m1 = 0.004283): 998.41 ± 0.16 kg/m3
- mass density (293.15 K, m1 = 0.006512): 998.5 ± 0.16 kg/m3
- mass density (293.15 K, m1 = 0.00819): 998.57 ± 0.16 kg/m3
- mass density (293.15 K, m1 = 0.01628): 998.83 ± 0.16 kg/m3
- mass density (293.15 K, m1 = 0.03262): 999.56 ± 0.16 kg/m3
- mass density (293.15 K, m1 = 0.04903): 1000.25 ± 0.16 kg/m3
- mass density (293.15 K, m1 = 0.06555): 1000.89 ± 0.16 kg/m3
- mass density (293.15 K, m1 = 0.0821): 1001.66 ± 0.16 kg/m3
- mass density (293.15 K, m1 = 0.09871): 1002.29 ± 0.16 kg/m3
- mass density (293.15 K, m1 = 0.1154): 1003.05 ± 0.16 kg/m3
- mass density (293.15 K, m1 = 0.1321): 1003.75 ± 0.16 kg/m3
- viscosity (298.15 K, m1 = 0.004283): 0.8912 ± 0.007 mPa·s
- viscosity (298.15 K, m1 = 0.006512): 0.8917 ± 0.007 mPa·s
- viscosity (298.15 K, m1 = 0.008188): 0.8923 ± 0.007 mPa·s
- viscosity (298.15 K, m1 = 0.01628): 0.8941 ± 0.007 mPa·s
- viscosity (298.15 K, m1 = 0.03262): 0.8978 ± 0.007 mPa·s
- viscosity (298.15 K, m1 = 0.04903): 0.9012 ± 0.007 mPa·s
- viscosity (298.15 K, m1 = 0.06555): 0.9039 ± 0.007 mPa·s
- viscosity (298.15 K, m1 = 0.0821): 0.9074 ± 0.0071 mPa·s
- viscosity (298.15 K, m1 = 0.09871): 0.9109 ± 0.0071 mPa·s
- viscosity (298.15 K, m1 = 0.1154): 0.9144 ± 0.0071 mPa·s
- viscosity (298.15 K, m1 = 0.1321): 0.9178 ± 0.0071 mPa·s
- mass density (298.15 K, m1 = 0.004283): 997.22 ± 0.16 kg/m3
- mass density (298.15 K, m1 = 0.006512): 997.3 ± 0.16 kg/m3
- mass density (298.15 K, m1 = 0.00819): 997.41 ± 0.16 kg/m3
- mass density (298.15 K, m1 = 0.01628): 997.73 ± 0.16 kg/m3
- mass density (298.15 K, m1 = 0.03262): 998.36 ± 0.16 kg/m3
- mass density (298.15 K, m1 = 0.04903): 999.09 ± 0.16 kg/m3
- mass density (298.15 K, m1 = 0.06555): 999.71 ± 0.16 kg/m3
- mass density (298.15 K, m1 = 0.0821): 1000.45 ± 0.16 kg/m3
- mass density (298.15 K, m1 = 0.09871): 1001.09 ± 0.16 kg/m3
- mass density (298.15 K, m1 = 0.1154): 1001.8 ± 0.16 kg/m3
- mass density (298.15 K, m1 = 0.1321): 1002.51 ± 0.16 kg/m3
- viscosity (303.15 K, m1 = 0.004283): 0.7981 ± 0.0061 mPa·s
- viscosity (303.15 K, m1 = 0.006512): 0.7985 ± 0.0061 mPa·s
- viscosity (303.15 K, m1 = 0.008188): 0.7989 ± 0.0061 mPa·s
- viscosity (303.15 K, m1 = 0.01628): 0.8005 ± 0.0062 mPa·s
- viscosity (303.15 K, m1 = 0.03262): 0.8035 ± 0.0062 mPa·s
- viscosity (303.15 K, m1 = 0.04903): 0.8067 ± 0.0062 mPa·s
- viscosity (303.15 K, m1 = 0.06555): 0.8098 ± 0.0062 mPa·s
- viscosity (303.15 K, m1 = 0.0821): 0.8127 ± 0.0062 mPa·s
- viscosity (303.15 K, m1 = 0.09871): 0.8158 ± 0.0063 mPa·s
- viscosity (303.15 K, m1 = 0.1154): 0.8192 ± 0.0063 mPa·s
- viscosity (303.15 K, m1 = 0.1321): 0.8225 ± 0.0063 mPa·s
- mass density (303.15 K, m1 = 0.004283): 995.82 ± 0.16 kg/m3
- mass density (303.15 K, m1 = 0.006512): 995.95 ± 0.16 kg/m3
- mass density (303.15 K, m1 = 0.00819): 996.01 ± 0.16 kg/m3
- mass density (303.15 K, m1 = 0.01628): 996.31 ± 0.16 kg/m3
- mass density (303.15 K, m1 = 0.03262): 996.97 ± 0.16 kg/m3
- mass density (303.15 K, m1 = 0.04903): 997.72 ± 0.16 kg/m3
- mass density (303.15 K, m1 = 0.06555): 998.32 ± 0.16 kg/m3
- mass density (303.15 K, m1 = 0.0821): 999.03 ± 0.16 kg/m3
- mass density (303.15 K, m1 = 0.09871): 999.67 ± 0.16 kg/m3
- mass density (303.15 K, m1 = 0.1154): 1000.33 ± 0.16 kg/m3
- mass density (303.15 K, m1 = 0.1321): 1001.03 ± 0.16 kg/m3
- viscosity (308.15 K, m1 = 0.004283): 0.7201 ± 0.0055 mPa·s
- viscosity (308.15 K, m1 = 0.006512): 0.7205 ± 0.0055 mPa·s
- viscosity (308.15 K, m1 = 0.008188): 0.7211 ± 0.0055 mPa·s
- viscosity (308.15 K, m1 = 0.01628): 0.7224 ± 0.0055 mPa·s
- viscosity (308.15 K, m1 = 0.03262): 0.7254 ± 0.0055 mPa·s
- viscosity (308.15 K, m1 = 0.04903): 0.7282 ± 0.0055 mPa·s
- viscosity (308.15 K, m1 = 0.06555): 0.7312 ± 0.0056 mPa·s
- viscosity (308.15 K, m1 = 0.0821): 0.7338 ± 0.0056 mPa·s
- viscosity (308.15 K, m1 = 0.09871): 0.7364 ± 0.0056 mPa·s
- viscosity (308.15 K, m1 = 0.1154): 0.7395 ± 0.0056 mPa·s
- viscosity (308.15 K, m1 = 0.1321): 0.742 ± 0.0056 mPa·s
- mass density (308.15 K, m1 = 0.004283): 994.28 ± 0.17 kg/m3
- mass density (308.15 K, m1 = 0.006512): 994.35 ± 0.16 kg/m3
- mass density (308.15 K, m1 = 0.00819): 994.4 ± 0.16 kg/m3
- mass density (308.15 K, m1 = 0.01628): 994.75 ± 0.16 kg/m3
- mass density (308.15 K, m1 = 0.03262): 995.44 ± 0.16 kg/m3
- mass density (308.15 K, m1 = 0.04903): 996.14 ± 0.16 kg/m3
- mass density (308.15 K, m1 = 0.06555): 996.72 ± 0.16 kg/m3
- mass density (308.15 K, m1 = 0.0821): 997.41 ± 0.16 kg/m3
- mass density (308.15 K, m1 = 0.09871): 998.05 ± 0.16 kg/m3
- mass density (308.15 K, m1 = 0.1154): 998.71 ± 0.16 kg/m3
- mass density (308.15 K, m1 = 0.1321): 999.39 ± 0.16 kg/m3
- viscosity (313.15 K, m1 = 0.004283): 0.6538 ± 0.0051 mPa·s
- viscosity (313.15 K, m1 = 0.006512): 0.6543 ± 0.0051 mPa·s
- viscosity (313.15 K, m1 = 0.008188): 0.6547 ± 0.0051 mPa·s
- viscosity (313.15 K, m1 = 0.01628): 0.6561 ± 0.0051 mPa·s
- viscosity (313.15 K, m1 = 0.03262): 0.6588 ± 0.0051 mPa·s
- viscosity (313.15 K, m1 = 0.04903): 0.661 ± 0.0051 mPa·s
- viscosity (313.15 K, m1 = 0.06555): 0.6639 ± 0.0051 mPa·s
- viscosity (313.15 K, m1 = 0.0821): 0.6662 ± 0.0052 mPa·s
- viscosity (313.15 K, m1 = 0.09871): 0.6686 ± 0.0052 mPa·s
- viscosity (313.15 K, m1 = 0.1154): 0.6713 ± 0.0052 mPa·s
- viscosity (313.15 K, m1 = 0.1321): 0.6742 ± 0.0052 mPa·s
- mass density (313.15 K, m1 = 0.004283): 992.41 ± 0.17 kg/m3
- mass density (313.15 K, m1 = 0.006512): 992.59 ± 0.17 kg/m3
- mass density (313.15 K, m1 = 0.00819): 992.64 ± 0.16 kg/m3
- mass density (313.15 K, m1 = 0.01628): 992.98 ± 0.16 kg/m3
- mass density (313.15 K, m1 = 0.03262): 993.51 ± 0.16 kg/m3
- mass density (313.15 K, m1 = 0.04903): 994.22 ± 0.17 kg/m3
- mass density (313.15 K, m1 = 0.06555): 994.91 ± 0.16 kg/m3
- mass density (313.15 K, m1 = 0.0821): 995.56 ± 0.16 kg/m3
- mass density (313.15 K, m1 = 0.09871): 996.21 ± 0.16 kg/m3
- mass density (313.15 K, m1 = 0.1154): 996.84 ± 0.16 kg/m3
- mass density (313.15 K, m1 = 0.1321): 997.49 ± 0.16 kg/m3

Compound: O [water] + O=C(O)c1cccnc1
- viscosity (293.15 K, m2 = 0): 1.003 ± 0.008 mPa·s
- viscosity (298.15 K, m2 = 0): 0.8904 ± 0.0069 mPa·s
- viscosity (303.15 K, m2 = 0): 0.7973 ± 0.0061 mPa·s
- viscosity (308.15 K, m2 = 0): 0.7194 ± 0.0055 mPa·s
- viscosity (313.15 K, m2 = 0): 0.653 ± 0.0051 mPa·s
